Results from patent publication US5434136A, “Treatment of motility disorders with a GNRH analog” (priority 1992, dated 1995).

How the values were obtained:
irritable bowel syndrome = details: patient, three months
Procedure: The patient, a patient suffering from irritable bowel syndrome presented symptoms of nausea, vomiting, abdominal pain, and altered bowel habits. This patient was treated with lupron, 2.0 mg/day by subcutaneous injection, for a period of six months. […] Nafarelin is a GnRH analog available from SYNTEX, which differs from the natural GnRH peptide in a D-Nal (2)^6 substitution. […] Nafarelin therapy was discontinued, and treatment with Danazol, a 17-ethyltestosterone derivative known to antagonize GnRH receptors at the level of the pituitary, was begun, at 200 mg four times daily, P.O., for a period of three months.

[1] = system: diseases of the autonomic nervous system; details: cited from earlier work; for Success of therapy: patients with mild to moderate disease symptoms; for Relief of symptoms: mild to moderate symptoms; for Relief of symptoms / Effectiveness in patients with severe symptoms: experimental drugs

Row | Structure (SMILES) | Success of therapy [1] | Relief of symptoms [1] | Effectiveness in patients with severe symptoms [1] | other results
1 | CC(C)C[C@H](NC(=O)[C@@H](Cc1ccc2ccccc2c1)NC(=O)[C@H](Cc1ccc(O)cc1)NC(=O)[C@H](CO)NC(=O)[C@H](Cc1c[nH]c2ccccc12)NC(=O)[C@H](Cc1c[nH]cn1)NC(=O)[C@@H]1CCC(=O)N1)C(=O)N[C@@H](CCCNC(=N)N)C(=O)N1CCC[C@H]1C(=O)NCC(N)=O [Nafarelin] | – | – | – | Blood levels of FSH and LH (irritable bowel syndrome; 2.0 mg/day s.c.): effectively reduced their blood levels of FSH and LH; Symptoms of irritable bowel disease (irritable bowel syndrome; 2.0 mg/day s.c.): effectively reduced the symptoms of their irritable bowel disease
2 | CC(C[N+](C)(C)C)OC(N)=O (stereo not drawn) [bethanechol] | limited success | – | – | –
3 | COc1cc(N)c(Cl)cc1C(=O)NC1CCN(CCCOc2ccc(F)cc2)CC1OC (stereo not drawn) [cisapride] | – | limited relief of mild to moderate symptoms | not been effective | –
4 | C#C[C@]1(O)CC[C@H]2[C@@H]3CCC4=Cc5oncc5C[C@]4(C)[C@H]3CC[C@@]21C [Danazol] | – | – | – | Therapeutic effect (irritable bowel syndrome; 200 mg four times daily, P.O.): only minimal therapeutic effect
5 | CCN(CC)CCNC(=O)c1cc(Cl)c(N)cc1OC [metoclopramide] | limited success | – | – | –
6 | O=c1[nH]c2ccccc2n1CCCN1CCC(n2c(=O)[nH]c3cc(Cl)ccc32)CC1 [domperidone] | – | limited relief of mild to moderate symptoms | not been effective | –
